In patent US20250288589A1, “PYRIDOPYRIMIDINES AND METHODS OF THEIR USE” (Kineta, Inc., priority 2021, published 2025):

target: T1, PIKfyve (Homo sapiens, UniProt Q9Y2I7); assay: NanoBRET TE Intracellular Kinase Assay, K-8 (Promega) cell-based assay; details: HEK293 cells transfected with PIKFYVE-NanoLuc, compounds 2 hours; read-out: hPIKfyve BRET IC50
T1 construct: PIKFYVE-NanoLuc® Fusion Vector (Promega) containing a full-length PIKfyve; host or cells: HEK293
Experimental: NanoBRET™ TE Intracellular Kinase Assay, K-8 (Promega) Cell-Based Assay. Intracellular inhibition of PIKfyve was assayed using Promega's NanoBRET™ TE Intracellular Kinase Assay, K-8 according to manufacturer's instructions. A dilution series of test compounds was added for 2 hours to HEK293 cells transfected for a minimum of 20 hours with PIKFYVE-NanoLuc® Fusion Vector (Promega) containing a full-length PIKfyve according to manufacturer's specifications in a 96-well plate. Kinase activity was detected by addition of a NanoBRET™ tracer reagent, which was a proprietary PIKfyve inhibitor appended to a fluorescent probe (BRET, bioluminescence resonance energy transfer). Test compounds were tested at concentrations of 10, 3, 1, 0.3, 0.1, 0.03, 0.01, 0.003 μM. BRET signals were measured by a GloMax® Discover Multimode Microplate Reader (Promega) using 0.3 sec/well integration time, 450BP donor filter and 600LP acceptor filters. Active test compounds that bound PIKfyve and displaced the tracer reduced BRET signal. IC50 values were then calculated by fitting the data to the normalized BRET ratio.

T1 sequence (Q9Y2I7 whole entry, the tested form may be a part): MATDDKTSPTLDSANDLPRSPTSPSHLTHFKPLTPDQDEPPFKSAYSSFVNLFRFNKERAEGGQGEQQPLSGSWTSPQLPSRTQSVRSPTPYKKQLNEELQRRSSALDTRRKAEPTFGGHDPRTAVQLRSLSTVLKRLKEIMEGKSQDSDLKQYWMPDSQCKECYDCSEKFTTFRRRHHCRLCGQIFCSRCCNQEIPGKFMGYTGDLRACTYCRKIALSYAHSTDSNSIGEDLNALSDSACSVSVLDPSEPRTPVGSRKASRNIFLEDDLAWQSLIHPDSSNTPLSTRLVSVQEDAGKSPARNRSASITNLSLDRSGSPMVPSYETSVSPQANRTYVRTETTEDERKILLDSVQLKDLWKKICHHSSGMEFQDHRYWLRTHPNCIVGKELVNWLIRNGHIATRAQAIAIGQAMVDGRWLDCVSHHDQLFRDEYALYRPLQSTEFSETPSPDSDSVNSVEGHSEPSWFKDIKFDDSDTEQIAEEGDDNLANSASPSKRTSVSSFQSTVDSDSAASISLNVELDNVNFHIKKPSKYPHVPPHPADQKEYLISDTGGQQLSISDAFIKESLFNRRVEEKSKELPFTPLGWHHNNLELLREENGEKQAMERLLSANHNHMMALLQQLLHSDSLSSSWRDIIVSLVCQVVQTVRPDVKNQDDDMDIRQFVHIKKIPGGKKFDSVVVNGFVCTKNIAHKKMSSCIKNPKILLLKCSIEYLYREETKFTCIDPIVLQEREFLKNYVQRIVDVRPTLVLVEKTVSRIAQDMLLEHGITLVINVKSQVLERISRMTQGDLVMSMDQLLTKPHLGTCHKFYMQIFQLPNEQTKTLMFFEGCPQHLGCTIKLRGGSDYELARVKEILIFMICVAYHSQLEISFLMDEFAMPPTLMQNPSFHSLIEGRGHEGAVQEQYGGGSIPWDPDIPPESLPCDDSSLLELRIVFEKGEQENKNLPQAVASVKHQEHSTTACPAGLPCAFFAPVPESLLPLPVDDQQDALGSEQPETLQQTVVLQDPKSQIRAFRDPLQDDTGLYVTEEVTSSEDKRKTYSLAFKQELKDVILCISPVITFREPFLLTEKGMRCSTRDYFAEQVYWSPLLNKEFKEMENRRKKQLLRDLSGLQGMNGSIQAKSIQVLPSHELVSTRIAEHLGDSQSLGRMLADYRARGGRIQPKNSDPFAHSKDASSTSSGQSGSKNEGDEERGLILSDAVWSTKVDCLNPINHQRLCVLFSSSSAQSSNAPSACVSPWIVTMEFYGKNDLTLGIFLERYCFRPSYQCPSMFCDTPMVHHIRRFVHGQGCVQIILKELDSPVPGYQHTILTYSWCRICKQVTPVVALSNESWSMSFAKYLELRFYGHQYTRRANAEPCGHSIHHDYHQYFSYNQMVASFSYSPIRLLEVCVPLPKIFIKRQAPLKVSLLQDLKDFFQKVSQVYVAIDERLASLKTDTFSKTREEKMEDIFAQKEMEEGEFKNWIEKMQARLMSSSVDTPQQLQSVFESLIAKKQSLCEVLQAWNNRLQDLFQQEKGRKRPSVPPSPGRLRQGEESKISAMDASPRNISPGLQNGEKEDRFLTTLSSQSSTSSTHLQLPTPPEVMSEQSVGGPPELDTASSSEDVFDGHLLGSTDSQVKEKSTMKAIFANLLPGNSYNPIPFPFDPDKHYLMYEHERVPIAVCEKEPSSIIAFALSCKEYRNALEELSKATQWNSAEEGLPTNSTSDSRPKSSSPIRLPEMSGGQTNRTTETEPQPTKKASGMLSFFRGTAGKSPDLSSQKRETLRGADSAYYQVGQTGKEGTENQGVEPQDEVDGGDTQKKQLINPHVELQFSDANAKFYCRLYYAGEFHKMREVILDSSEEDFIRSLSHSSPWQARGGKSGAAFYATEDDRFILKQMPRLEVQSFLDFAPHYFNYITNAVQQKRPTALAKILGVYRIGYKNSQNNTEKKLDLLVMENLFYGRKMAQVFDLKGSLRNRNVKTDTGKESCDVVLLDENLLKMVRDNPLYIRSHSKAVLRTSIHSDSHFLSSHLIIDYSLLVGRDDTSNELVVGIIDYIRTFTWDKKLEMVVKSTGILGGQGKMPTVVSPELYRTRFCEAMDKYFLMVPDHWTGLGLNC

IC50 [µM]	Compound
1 to 10	c1ccc(-c2ccn(-c3nc(N4CCOCC4)c4ncccc4n3)n2)nc1 [Compound 12, 4-(2-(3-(pyridin-2-yl)-1H-pyrazol-1-yl)pyrido[3,2-d]pyrimidin-4-yl)morpholine]
> 10	Oc1cc(-c2ccccc2)nn1-c1nc(N2CCOCC2)c2ncccc2n1 [Compound 71, 1-(4-morpholinopyrido[3,2-d]pyrimidin-2-yl)-3-phenyl-1H-pyrazol-5-ol]

test system: PIKFYVE TDP-43 yeast strain; assay: Propidium iodide viability assay in PIKFYVE TDP-43 yeast strain; format: cell-based; details: 0.23 μM (FIG. 6)
Description: Generation of TDP-43 yeast model expressing human PIKfyve. Human PIKFYVE (“entry clone”) was cloned into pAG416GPDccdB (“destination vector”) according to standard Gateway cloning protocols (Invitrogen, Life Technologies). The resulting pAG416GPD-PIKFYVE plasmids were amplified in E. coli and plasmid identity confirmed by restriction digest and Sanger sequencing. Lithium acetate/polyethylene glycol-based transformation was used to introduce the above PIKFYVE plasmid into a BY4741 yeast strain auxotrophic for the ura3 gene and deleted for two transcription factors that regulate the xenobiotic efflux pumps, a major efflux pump, and FAB1, the yeast ortholog of PIKFYVE (MATa, snq2::KILeu2; pdr3::Klura3;pdr1::NATMX; fab1::G418^R, his3;leu2;ura3;met15;LYS2+) (FIG. 2).
Transformed yeast were plated on solid agar plates with complete synthetic media lacking uracil (CSM-ura) and containing 2% glucose. Individual colonies harboring the control or PIKFYVE TDP-43 plasmids were recovered. A plasmid containing wild-type TDP-43 under the transcriptional control of the GAL1 promoter and containing the hygromycin-resistance gene as a selectable marker was transformed into the fab1::G418^R pAG416GPD-PIKFYVE yeast strain (FIG. 1). Transformed yeast were plated on CSM-ura containing 2% glucose and […] after overnight recovery in media lacking antibiotic. Multiple independent isolates were further evaluated for cytotoxicity and TDP-43 expression levels.
Viability Assay. A control yeast strain with the wild-type yeast FAB1 gene and TDP-43 (“FAB1 TDP-43”, carries empty pAG416 plasmid), and the “PIKFYVE TDP-43” yeast strain, were assessed for toxicity using a propidium iodide viability assay. Both yeast strains were transferred from solid CSM-ura/2% glucose agar plates into 3 mL of liquid CSM-ura/2% glucose media for 6-8 hours at 30° C. with aeration. Yeast cultures were then diluted to an optical density at 600 nm wavelength (OD600) of 0.005 in 3 mL of CSM-ura/2% raffinose and grown overnight at 30° C. with aeration to an OD600 of 0.3-0.8. Log-phase overnight cultures were diluted to OD600 of 0.005 in CSM-ura containing either 2% raffinose or galactose and 150 μL dispensed into each well of a flat bottom 96-well plates. Compounds formulated in 100% dimethyl sulfoxide (DMSO) were serially diluted in DMSO and 1.5 μL diluted compound transferred to the 96-well plates using a multichannel pipet. Wells containing DMSO alone were also evaluated as controls for compound effects. Tested concentrations ranged from 15 μM to 0.11 μM. Cultures were immediately mixed to ensure compound distribution and covered plates incubated at 30° C. for 24 hours in a stationary, humified incubator.
Upon the completion of incubation, cultures were assayed for viability using propidium iodide (PI) to stain for dead/dying cells. A working solution of PI was made where, for each plate, 1 μL of 10 mM PI was added to 10 mL of CSM-ura (raffinose or galactose). The final PI solution (50 μL/well) was dispensed into each well of a new round bottom 96-well plate. The overnight 96-well assay plate was then mixed with a multichannel pipet and 50 μL transferred to the PI-containing plate. This plate was then incubated for 30 minutes at 30° C. in the dark. A benchtop flow cytometer (Miltenyi MACSquant) was then used to assess red fluorescence (B2 channel), forward scatter, and side scatter (with following settings: gentle mix, high flow rate, fast measurement, 10,000 events). Intensity histograms were then gated for “PI-positive” or “PI-negative” using the raffinose and galactose cultures treated with DMSO as controls. The DMSO controls for raffinose or galactose-containing cultures were used to determine the window of increased cell death and this difference set to 100. All compounds were similarly gated and then compared to this maximal window to establish the percent reduction in PI-positive cells.

Compound	propidium iodide-positive dead cells in PIKFYVE TDP-43 model
Cc1cccc(/C=N/Nc2cc(N3CCOCC3)n3nc(-c4ccncc4)cc3n2)c1 [APY0201, reference compound]	reduced the population of propidium iodide-positive dead cells

same assay, conditions: PIKFYVE TDP-43 model

Compound	concentrations that afforded increased viability
Cc1cccc(/C=N/Nc2cc(N3CCOCC3)n3nc(-c4ccncc4)cc3n2)c1 [APY0201, reference compound]	0.5 mM to less than 100 nM

same assay, conditions: Saccharomyces cerevisiae; reduction in PI-positive cells, 24 hours, 15 μM to 0.11 μM; plotted in FIG. 7

Compound	IC50 [µM]
Cc1cccc(/C=N/Nc2cc(N3CCOCC3)nc(OCCc3ccc(CN)cc3)n2)c1	1.12
c1ccc(-c2cccc(-c3cc(N4CCOCC4)n4nc(-c5ccncc5)cc4n3)n2)cc1	0.23
Cc1cccc(/C=N/Nc2nc(N3CCOCC3)c3nc(-c4ccncc4)n(C)c3n2)c1	4.72
Oc1cc(-c2ccccc2)nn1-c1cc(N2CCOCC2)n2nc(-c3ccncc3)nc2n1	0.693
Oc1cc(C2CCOCC2)nn1-c1cc(N2CCOCC2)n2nc(-c3ccncc3)cc2n1	9.11
Cc1cccc(/C=N/Nc2nc(N3CCOCC3)c3ncccc3n2)c1	8.21
c1ccc(-c2ccnc(-c3cc(N4CCOCC4)nc(OCc4ccncc4)n3)n2)cc1	1.45
c1ccc(N2CCc3c(OCc4cccnc4)nc(N4CCOCC4)nc32)cc1	2.69
Fc1cccc(-c2ccnn2-c2nc(N3CCOCC3)c3ncccc3n2)c1	5.75

test system: FAB1 TDP-43 yeast strain; assay: Propidium iodide viability assay in FAB1 TDP-43 control yeast strain; format: cell-based; details: across a range of compound concentrations (FIG. 5, 0.23 μM shown)
Experimental: Generation of TDP-43 yeast model expressing human PIKfyve. Human PIKFYVE (“entry clone”) was cloned into pAG416GPDccdB (“destination vector”) according to standard Gateway cloning protocols (Invitrogen, Life Technologies). The resulting pAG416GPD-PIKFYVE plasmids were amplified in E. coli and plasmid identity confirmed by restriction digest and Sanger sequencing. […]
Transformed yeast were plated on solid agar plates with complete synthetic media lacking uracil (CSM-ura) and containing 2% glucose. […] Multiple independent isolates were further evaluated for cytotoxicity and TDP-43 expression levels.
Viability Assay. A control yeast strain with the wild-type yeast FAB1 gene and TDP-43 (“FAB1 TDP-43”, carries empty pAG416 plasmid), and the “PIKFYVE TDP-43” yeast strain, were assessed for toxicity using a propidium iodide viability assay. […] Wells containing DMSO alone were also evaluated as controls for compound effects. […]
Upon the completion of incubation, cultures were assayed for viability using propidium iodide (PI) to stain for dead/dying cells. […] A benchtop flow cytometer (Miltenyi MACSquant) was then used to assess red fluorescence (B2 channel), forward scatter, and side scatter (with following settings: gentle mix, high flow rate, fast measurement, 10,000 events). […]

Compound	viable cells in FAB1 TDP-43
Cc1cccc(/C=N/Nc2cc(N3CCOCC3)n3nc(-c4ccncc4)cc3n2)c1 [APY0201, reference compound]	no increase in viable cells

target: T2, full-length human PIKFYVE (Homo sapiens, UniProt Q9Y2I7, L932S/Q1183K/Q995L/S1033A/S696N/T998S); assay: PIKfyve biochemical assay (ADP-Glo Kinase assay, Carna Biosciences); details: GST-PIKFYVE, 10 μM to 3 nM in duplicate, read-out: hPIKfyve IC50
T2 construct: A full-length human PIKFYVE [1-2098(end) amino acids and S696N, L932S, Q995L, T998S, S1033A and Q1183K; purchased Carna Biosciences; host or cells: baculovirus expression system
T2 sequence (Q9Y2I7 whole entry S696N/L932S/Q995L/T998S/S1033A/Q1183K): as the sequence (Q9Y2I7 whole entry, the tested form may be a part) above, with S696N, L932S, Q995L, T998S, S1033A, Q1183K counted along it
Description: (§1) PIKfyve Biochemical Assay. The biochemical PIKFyve inhibition assays were run by Carna Biosciences according to proprietary methodology based on the Promega ADP-Glo™ Kinase assay. A full-length human PIKFYVE [1-2098(end) amino acids and S696N, L932S, Q995L, T998S, S1033A and Q1183K of the protein having the sequence set forth in NCBI Reference Sequence No. NP_055855.2] was expressed as N-terminal GST-fusion protein (265 kDa) using baculovirus expression system. GST-PIKFYVE was purified by using glutathione sepharose chromatography and used in an ADP-Glo™ Kinase assay (Promega). Reactions were set up by adding the test compound solution, substrate solution, ATP solution and kinase solution, each at 4× final concentrations. Reactions were prepared with assay buffer (50 mM MOPS, 1 mM DTT, pH7.2), mixed, and incubated in black 384 well polystyrene plates for 1 hour at room temperature. ADP-Glo™ reagent was then added for 40 minutes, followed by kinase detection reagent for an additional 40 minutes. The kinase activity was evaluated by detecting relative light units on a luminescence plate reader. Samples were run in duplicate from 10 μM to 3 nM. […] IC50 values were calculated from concentration vs % inhibition curves by fitting to a four-parameter logistic curve.
as §1, with “The” for “PIKfyve Biochemical Assay. The”, “accession number” for “the protein having the sequence set forth in NCBI Reference Sequence No.”, “uM” for “μM”

Compound	IC50 [µM]
c1ccc(-c2ccn(-c3nc(N4CCOCC4)c4ncccc4n3)n2)nc1 [Compound 12, 4-(2-(3-(pyridin-2-yl)-1H-pyrazol-1-yl)pyrido[3,2-d]pyrimidin-4-yl)morpholine]	0.1 to 1
c1ccc(-c2nccc(-c3nc(N4CCOCC4)c4ncc(-c5ccncc5)cc4n3)n2)cc1 [Compound 104, 4-(2-(2-phenylpyrimidin-4-yl)-7-(pyridin-4-yl)pyrido[3,2-d]pyrimidin-4-yl)morpholine]	< 0.01
c1ccc(-c2nccc(-c3nc(N4CCOCC4)c4ncc(-c5cc[nH]n5)cc4n3)n2)cc1 [Compound 105, 4-(2-(2-phenylpyrimidin-4-yl)-7-(1H-pyrazol-3-yl)pyrido[3,2-d]pyrimidin-4-yl)morpholine]	0.01 to 0.1
CC1COCCN1c1nc(-c2ccnc(-c3ccccc3)n2)nc2cccnc12 (stereo not shown) [Compound 106, 3-methyl-4-(2-(2-phenylpyrimidin-4-yl)pyrido[3,2-d]pyrimidin-4-yl)morpholine]	0.1 to 1

More lines, now with the values ahead:

IC50 [µM]	Compound
1 to 10	COc1ccc(-c2ccccc2)nc1-c1nc(N2CCOCC2)c2ncccc2n1 [Compound 107, 4-(2-(3-methoxy-6-phenylpyridin-2-yl)pyrido[3,2-d]pyrimidin-4-yl)morpholine]
0.01 to 0.1	Oc1ccc(-c2ccccc2)nc1-c1nc(N2CCOCC2)c2ncccc2n1 [Compound 108, 2-(4-morpholinopyrido[3,2-d]pyrimidin-2-yl)-6-phenylpyridin-3-ol]
0.1 to 1	c1ccc2c(c1)cnn2-c1nc(N2CCOCC2)c2ncccc2n1 [Compound 109, 4-(2-indazol-1-ylpyrido[3,2-d]pyrimidin-4-yl)morpholine]
0.1 to 1	Oc1cccc(/C=N/Nc2nc(N3CCOCC3)c3ncccc3n2)c1 [Compound 114, (E)-3-((2-(4-morpholinopyrido[3,2-d]pyrimidin-2-yl)hydrazono)methyl)phenol]
0.01 to 0.1	Cc1cccc(/C=N/Oc2nc(N3CCOCC3)c3ncccc3n2)c1 [Compound 116, (E)-3-methylbenzaldehyde O-(4-morpholinopyrido[3,2-d]pyrimidin-2-yl) oxime]
> 10	Clc1nc(N2CCOCC2)c2ncc(Cc3cccnc3)cc2n1 [Compound 128, 4-(2-chloro-7-(pyridin-3-ylmethyl)pyrido[3,2-d]pyrimidin-4-yl)morpholine]
0.1 to 1	Fc1cccc(Nc2nc(N3CCOCC3)c3ncc(Cc4cccnc4)cc3n2)c1 [Compound 129, N-(3-fluorophenyl)-4-morpholino-7-(pyridin-3-ylmethyl)pyrido[3,2-d]pyrimidin-2-amine]
